Assay results published in patent US20230382949A1 (HEPTARES THERAPEUTICS LIMITED, priority 2020, published 2023).
Read-outs that look alike come from different tables or passages of the source. Starred links: 1 amine or outer side, 2 acyl side, 3 side chain; linkers in the order of their positions; H or OH if unused. Non-standard residues stand in square brackets, D forms with d. Residues, ends and D or L forms follow the SMILES beside them. *: point of attachment. Ala(piperidin-4-yl) = O=C([C@H](CC1CCN([*:3])CC1)N[*:1])[*:2]; Malonyl(2,2-Me2,histaminyl) = CC(C)(C(=O)NCCc1cnc[nH]1)C(=O)*; Ala(1-imidazolyl) = N[C@@H](Cn1ccnc1)C(=O)O; Bip = N[C@@H](Cc1ccc(-c2ccccc2)cc1)C(=O)O; dBip = N[C@H](Cc1ccc(-c2ccccc2)cc1)C(=O)O; Oic = O=C(O)[C@@H]1C[C@@H]2CCCC[C@@H]2N1; Phe(3-Cl) = N[C@@H](Cc1cccc(Cl)c1)C(=O)O; Phe(4-Br) = N[C@@H](Cc1ccc(Br)cc1)C(=O)O; 2Nal = N[C@@H](Cc1ccc2ccccc2c1)C(=O)O; d2Nal = N[C@H](Cc1ccc2ccccc2c1)C(=O)O; X5 = CC(C)(C(=O)NCc1c[nH]cn1)C(=O)*; hArg = N=C(N)NCCCC[C@H](N)C(=O)O; dCha = N[C@H](CC1CCCCC1)C(=O)O; Pip = O=C(O)[C@@H]1CCCCN1; Aib = CC(C)(N)C(=O)O; Bn = c1ccc(C*)cc1

Columns and labels:
human Apelin receptor [1] = biological target: T1, human Apelin receptor (Homo sapiens, UniProt P35414); test: β-arrestin accumulation assay, functional agonism of human Apelin receptors; format: cell-based
T1 construct: host or cells: CHO-K1 cells
Procedure: β-arrestin assay. […] After 16 h incubation at 37° C. media was removed and cells were incubated at 37° C. for 90 min in serum free media containing increasing concentrations of test agonist. The assay reaction was stopped by adding detection reagent (DiscoveRx) and incubation for 60 min in the dark. Levels of receptor activation were then measured on a PheraStar fluorescence plate reader (BMG LabTech) and EC50 values were determined using Graphpad Prism.
T1 sequence (P32121 whole entry partner, one chain of several): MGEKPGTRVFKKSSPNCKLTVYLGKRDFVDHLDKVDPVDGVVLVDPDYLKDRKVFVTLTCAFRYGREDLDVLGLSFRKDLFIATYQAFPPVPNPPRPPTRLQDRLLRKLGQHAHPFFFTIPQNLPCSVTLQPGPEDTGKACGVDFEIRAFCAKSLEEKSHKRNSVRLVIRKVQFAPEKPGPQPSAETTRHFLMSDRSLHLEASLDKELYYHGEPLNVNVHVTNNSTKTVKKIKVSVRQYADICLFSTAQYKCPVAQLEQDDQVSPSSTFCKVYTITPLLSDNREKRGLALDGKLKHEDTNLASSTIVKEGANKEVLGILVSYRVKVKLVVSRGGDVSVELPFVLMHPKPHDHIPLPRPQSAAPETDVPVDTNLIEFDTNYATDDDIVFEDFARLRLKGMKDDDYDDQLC

human Apelin receptor [2] = biological target: T2, human Apelin receptor (Homo sapiens, UniProt P35414); test: cAMP accumulation assay (HTRF), functional agonism of human Apelin receptors; format: cell-based; conditions: for Emax: CHO
T2 sequence (P35414 1-380): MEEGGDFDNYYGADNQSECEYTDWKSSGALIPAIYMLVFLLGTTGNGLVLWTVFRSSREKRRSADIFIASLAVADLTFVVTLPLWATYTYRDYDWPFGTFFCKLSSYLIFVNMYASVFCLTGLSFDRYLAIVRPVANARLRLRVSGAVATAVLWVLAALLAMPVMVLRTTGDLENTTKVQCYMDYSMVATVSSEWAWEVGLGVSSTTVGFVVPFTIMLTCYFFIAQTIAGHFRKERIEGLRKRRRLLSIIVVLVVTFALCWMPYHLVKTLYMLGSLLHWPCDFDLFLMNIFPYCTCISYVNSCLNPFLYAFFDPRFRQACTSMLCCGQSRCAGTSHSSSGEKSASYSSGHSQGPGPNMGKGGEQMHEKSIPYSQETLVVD
Text: cAMP functional assay. cAMP production was quantified using the Homogeneous Time-Resolved Fluorescence (HTRF) cAMP dynamic-2 assay (Cisbio, France).

[3] = Human Apelin agonist cAMP assay, CHO cells stably expressing the human Apelin receptor, 3 uM forskolin
[4] = pEC50, Human Apelin agonist cAMP assay, CHO cells stably expressing the human Apelin receptor, 3 uM forskolin

Row | Emax (human Apelin receptor [2]; read-out: Emax) [%] | EC50 (human Apelin receptor [2]; read-out: pEC50 (converted)) [µM] | Compound | EC50 (human Apelin receptor [1]) [µM] | Emax (human Apelin receptor [2]; [3]) [%] | EC50 (human Apelin receptor [2]; [4]) [µM]
1 | – | – | CC(C)C[C@H](NC(=O)[C@@H](CCCNC(=N)N)NC(=O)[C@@H]1CCCN1C(=O)[C@H](CCCCNC(=N)N)NC(=O)[C@H](CCC(N)=O)NC(=O)[C@@H](CCCNC(=N)N)NC(=O)C(C)(C)C(=O)NCCc1c[nH]cn1)C(=O)NC(C)(C)C(=O)N[C@@H](Cc1c[nH]cn1)C(=O)N[C@@H](CC1CCNCC1)C(=O)NCC(=O)N1[C@H](C(=O)N[C@@H](Cc2cccc(Cl)c2)C(=O)N2CCC[C@H]2C(=O)N[C@H](Cc2ccc(-c3ccccc3)cc2)C(=O)O)C[C@@H]2CCCC[C@@H]21 [Example 18] ({Malonyl(2,2-Me2,histaminyl)}-[dR]Q[hArg]P[dR]L[Aib]H[Ala(piperidin-4-yl)]G[Oic][Phe(3-Cl)]P[dBip]-OH) | > 10 | 47.5 | 0.0794
2 | – | – | CC(C)C[C@H](NC(=O)[C@@H](CCCNC(=N)N)NC(=O)[C@@H]1CCCN1C(=O)[C@H](CCCCNC(=N)N)NC(=O)[C@H](CCC(N)=O)NC(=O)[C@@H](CCCNC(=N)N)NC(=O)C(C)(C)C(=O)NCCc1c[nH]cn1)C(=O)NC(C)(C)C(=O)N[C@@H](Cc1c[nH]cn1)C(=O)N[C@@H](CC1CCNCC1)C(=O)NCC(=O)N1[C@H](C(=O)N[C@@H](Cc2ccc(-c3ccccc3)cc2)C(=O)N2CCC[C@H]2C(=O)N[C@H](Cc2ccc(-c3ccccc3)cc2)C(=O)O)C[C@@H]2CCCC[C@@H]21 [Example 19] ({Malonyl(2,2-Me2,histaminyl)}-[dR]Q[hArg]P[dR]L[Aib]H[Ala(piperidin-4-yl)]G[Oic][Bip]P[dBip]-OH) | > 10 | 97 | 0.02
3 | – | – | CC(C)C[C@H](NC(=O)[C@@H](CCCNC(=N)N)NC(=O)[C@@H]1CCCN1C(=O)[C@H](CCCCNC(=N)N)NC(=O)[C@H](CCC(N)=O)NC(=O)[C@@H](CCCNC(=N)N)NC(=O)C(C)(C)C(=O)NCCc1c[nH]cn1)C(=O)NC(C)(C)C(=O)N[C@@H](Cc1c[nH]cn1)C(=O)N[C@@H](CC1CCNCC1)C(=O)NCC(=O)N1[C@H](C(=O)N[C@@H](Cc2ccc3ccccc3c2)C(=O)N2CCC[C@H]2C(=O)N[C@H](Cc2ccc(-c3ccccc3)cc2)C(=O)O)C[C@@H]2CCCC[C@@H]21 [Example 20] ({Malonyl(2,2-Me2,histaminyl)}-[dR]Q[hArg]P[dR]L[Aib]H[Ala(piperidin-4-yl)]G[Oic][2Nal]P[dBip]-OH) | > 10 | 84.1 | 0.0126
4 | – | – | CC(C)C[C@H](NC(=O)[C@@H](CCCNC(=N)N)NC(=O)[C@@H]1CCCN1C(=O)[C@H](CCCCNC(=N)N)NC(=O)[C@H](CCC(N)=O)NC(=O)[C@@H](CCCNC(=N)N)NC(=O)C(C)(C)C(=O)NCCc1c[nH]cn1)C(=O)NC(C)(C)C(=O)N[C@@H](Cc1c[nH]cn1)C(=O)N[C@@H](CC1CCNCC1)C(=O)NCC(=O)N1[C@H](C(=O)N[C@@H](Cc2ccc(Br)cc2)C(=O)N2CCCC[C@H]2C(=O)N[C@H](Cc2ccc(-c3ccccc3)cc2)C(=O)O)C[C@@H]2CCCC[C@@H]21 [Example 21] ({Malonyl(2,2-Me2,histaminyl)}-[dR]Q[hArg]P[dR]L[Aib]H[Ala(piperidin-4-yl)]G[Oic][Phe(4-Br)][Pip][dBip]-OH) | > 1 | 54.5 | 0.01
5 | – | – | CC(C)C[C@H](NC(=O)[C@@H](CCCNC(=N)N)NC(=O)[C@@H]1CCCN1C(=O)[C@H](CCCCNC(=N)N)NC(=O)[C@H](CCC(N)=O)NC(=O)[C@@H](CCCNC(=N)N)NC(=O)C(C)(C)C(=O)NCCc1c[nH]cn1)C(=O)NC(C)(C)C(=O)N[C@@H](Cc1c[nH]cn1)C(=O)N[C@@H](CC1CCNCC1)C(=O)NCC(=O)N1[C@H](C(=O)N[C@@H](Cc2ccc(Br)cc2)C(=O)N2CCC[C@H]2C(=O)N[C@H](Cc2ccc(OCc3ccccc3)cc2)C(=O)O)C[C@@H]2CCCC[C@@H]21 [Example 22] ({Malonyl(2,2-Me2,histaminyl)}-[dR]Q[hArg]P[dR]L[Aib]H[Ala(piperidin-4-yl)]G[Oic][Phe(4-Br)]P[dY](Bn)-OH) | > 10 | 98.1 | 0.00794
6 | 43.4 | 0.0251 | CC(C)C[C@H](NC(=O)[C@@H](CCCNC(=N)N)NC(=O)[C@@H]1CCCN1C(=O)[C@H](CCCCNC(=N)N)NC(=O)[C@H](CCC(N)=O)NC(=O)[C@@H](CCCNC(=N)N)NC(=O)C(C)(C)C(=O)NCCc1c[nH]cn1)C(=O)NC(C)(C)C(=O)N[C@@H](Cc1c[nH]cn1)C(=O)N[C@@H](CC1CCNCC1)C(=O)NCC(=O)N1[C@H](C(=O)N[C@@H](Cc2ccc(Br)cc2)C(=O)N2CCC[C@H]2C(=O)N[C@H](Cc2ccc3ccccc3c2)C(=O)O)C[C@@H]2CCCC[C@@H]21 [Example 23] ({Malonyl(2,2-Me2,histaminyl)}-[dR]Q[hArg]P[dR]L[Aib]H[Ala(piperidin-4-yl)]G[Oic][Phe(4-Br)]P[d2Nal]-OH) | > 10 | – | –
7 | 87.9 | 0.0316 | CC(C)C[C@H](NC(=O)[C@@H](CCCNC(=N)N)NC(=O)[C@@H]1CCCN1C(=O)[C@H](CCCCNC(=N)N)NC(=O)[C@H](CCC(N)=O)NC(=O)[C@@H](CCCNC(=N)N)NC(=O)C(C)(C)C(=O)NCCc1c[nH]cn1)C(=O)NC(C)(C)C(=O)N[C@@H](Cc1c[nH]cn1)C(=O)N[C@@H](CC1CCNCC1)C(=O)NCC(=O)N1[C@H](C(=O)N[C@@H](Cc2ccc(Br)cc2)C(=O)N2CCC[C@H]2C(=O)N[C@H](CC2CCCCC2)C(=O)O)C[C@@H]2CCCC[C@@H]21 [Example 24] ({Malonyl(2,2-Me2,histaminyl)}-[dR]Q[hArg]P[dR]L[Aib]H[Ala(piperidin-4-yl)]G[Oic][Phe(4-Br)]P[dCha]-OH) | > 10 | – | –
8 | – | – | CC(C)C[C@H](NC(=O)[C@H](CCCNC(=N)N)NC(=O)[C@@H]1CCCN1C(=O)[C@@H](CCCNC(=N)N)NC(=O)[C@H](CCC(N)=O)NC(=O)[C@@H](CCCNC(=N)N)NC(=O)C(C)(C)C(=O)NCCc1c[nH]cn1)C(=O)NC(C)(C)C(=O)N[C@@H](Cc1c[nH]cn1)C(=O)N[C@@H](CC1CCNCC1)C(=O)NCC(=O)N1[C@H](C(=O)N[C@@H](Cc2ccc(Br)cc2)C(=O)N2CCC[C@H]2C(=O)N[C@H](Cc2ccc(-c3ccccc3)cc2)C(=O)O)C[C@@H]2CCCC[C@@H]21 [Example 25] ({Malonyl(2,2-Me2,histaminyl)}-[dR]Q[dR]PRL[Aib]H[Ala(piperidin-4-yl)]G[Oic][Phe(4-Br)]P[dBip]-OH) | > 10 | 92.7 | 0.0158
9 | 66.1 | 0.00631 | CC(C)C[C@H](NC(=O)[C@@H](CCCNC(=N)N)NC(=O)[C@@H]1CCCN1C(=O)[C@H](CCCCNC(=N)N)NC(=O)[C@H](CCC(N)=O)NC(=O)[C@@H](CCCNC(=N)N)NC(=O)C(C)(C)C(=O)NCc1c[nH]cn1)C(=O)NC(C)(C)C(=O)N[C@@H](Cc1c[nH]cn1)C(=O)N[C@@H](CC1CCNCC1)C(=O)NCC(=O)N1[C@H](C(=O)N[C@@H](Cc2ccc(Br)cc2)C(=O)N2CCC[C@H]2C(=O)N[C@H](Cc2ccc(-c3ccccc3)cc2)C(=O)O)C[C@@H]2CCCC[C@@H]21 [Example 27] (X5-[dR]Q[hArg]P[dR]L[Aib]H[Ala(piperidin-4-yl)]G[Oic][Phe(4-Br)]P[dBip]-OH) | > 10 | – | –
10 | – | – | CC(C)C[C@H](NC(=O)[C@@H](CCCNC(=N)N)NC(=O)[C@@H]1CCCN1C(=O)[C@H](CCCCNC(=N)N)NC(=O)[C@H](CCC(N)=O)NC(=O)[C@@H](CCCNC(=N)N)NC(=O)C(C)(C)C(=O)NCCc1cnc[nH]1)C(=O)NC(C)(C)C(=O)N[C@@H](Cn1ccnc1)C(=O)N[C@@H](CC1CCNCC1)C(=O)NCC(=O)N1[C@H](C(=O)N[C@@H](Cc2ccc(Br)cc2)C(=O)N2CCC[C@H]2C(=O)N[C@H](Cc2ccc(-c3ccccc3)cc2)C(=O)O)C[C@@H]2CCCC[C@@H]21 [Example 28] ({Malonyl(2,2-Me2,histaminyl)}-[dR]Q[hArg]P[dR]L[Aib][Ala(1-imidazolyl)][Ala(piperidin-4-yl)]G[Oic][Phe(4-Br)]P[dBip]-OH) | > 10 | 27.4 | 0.0158
11 | – | – | CC(C)C[C@H](NC(=O)[C@@H](CCCNC(=N)N)NC(=O)[C@@H]1CCCCN1C(=O)[C@H](CCCCNC(=N)N)NC(=O)[C@H](CCC(N)=O)NC(=O)[C@@H](CCCNC(=N)N)NC(=O)C(C)(C)C(=O)NCCc1cnc[nH]1)C(=O)NC(C)(C)C(=O)N[C@@H](Cc1c[nH]cn1)C(=O)N[C@@H](CC1CCNCC1)C(=O)N[C@@H](C)C(=O)N1[C@H](C(=O)N[C@@H](Cc2ccc(Br)cc2)C(=O)N2CCC[C@H]2C(=O)N[C@H](Cc2ccc(-c3ccccc3)cc2)C(=O)O)C[C@@H]2CCCC[C@@H]21 [Example 29] ({Malonyl(2,2-Me2,histaminyl)}-[dR]Q[hArg][Pip][dR]L[Aib]H[Ala(piperidin-4-yl)]A[Oic][Phe(4-Br)]P[dBip]-OH) | > 10 | 69.7 | 0.00251
12 | – | – | CC(C)C[C@H](NC(=O)[C@@H](CCCNC(=N)N)NC(=O)[C@@H]1CCCCN1C(=O)[C@H](CCCNC(=N)N)NC(=O)[C@H](CCC(N)=O)NC(=O)[C@@H](CCCNC(=N)N)NC(=O)C(C)(C)C(=O)NCCc1cnc[nH]1)C(=O)NC(C)(C)C(=O)N[C@@H](Cc1c[nH]cn1)C(=O)N[C@@H](CC1CCNCC1)C(=O)NCC(=O)N1[C@H](C(=O)N[C@@H](Cc2ccc(Br)cc2)C(=O)N2CCC[C@H]2C(=O)N[C@H](Cc2ccc(-c3ccccc3)cc2)C(=O)O)C[C@@H]2CCCC[C@@H]21 [Example 30] ({Malonyl(2,2-Me2,histaminyl)}-[dR]QR[Pip][dR]L[Aib]H[Ala(piperidin-4-yl)]G[Oic][Phe(4-Br)]P[dBip]-OH) | > 10 | 106 | 0.00501
